This note sets out measurements from ChEMBL document CHEMBL1909046, “DrugMatrix in vitro pharmacology data”.

Structures are written as SMILES.

One experiment deals with D(1A) dopamine receptor (Homo sapiens, UniProt P21728). The experiment can be described thus: DRUGMATRIX: Dopamine D1 radioligand binding (ligand: [3H] SCH-23390). The experiment is classed as cell membranes, CHO, Membrane. The note with it: Not Active = under 50% inhibition at 10 µM.
Experiment [1] addresses T1, Alpha-1A adrenergic receptor (Rattus norvegicus, UniProt P43140).
T1 sequence (P43140 whole entry): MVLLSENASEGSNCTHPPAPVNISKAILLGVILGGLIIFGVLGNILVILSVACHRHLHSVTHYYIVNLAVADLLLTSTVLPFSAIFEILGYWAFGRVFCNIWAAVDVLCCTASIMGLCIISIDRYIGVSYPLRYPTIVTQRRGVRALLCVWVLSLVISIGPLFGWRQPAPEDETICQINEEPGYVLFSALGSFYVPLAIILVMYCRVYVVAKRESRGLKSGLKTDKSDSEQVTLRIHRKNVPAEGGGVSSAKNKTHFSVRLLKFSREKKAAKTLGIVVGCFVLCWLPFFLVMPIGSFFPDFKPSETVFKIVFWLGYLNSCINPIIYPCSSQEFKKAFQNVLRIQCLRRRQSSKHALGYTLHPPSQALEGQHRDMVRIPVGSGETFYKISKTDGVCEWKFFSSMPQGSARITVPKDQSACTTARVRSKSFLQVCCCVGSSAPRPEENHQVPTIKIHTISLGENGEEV
The experiment can be described thus: DRUGMATRIX: Alpha-1A adrenergic receptor radioligand binding (ligand: prazosin). The experiment is classed as cell membranes, Wistar, Submaxillary gland, Membrane. The conditions noted are these: Not Active = under 50% inhibition at 10 µM.

Another experiment has as its target Substance-P receptor (Homo sapiens, UniProt P25103). The experiment is classed as cell membranes, Membrane. The note with it: cho. Further: in other assays of this panel Not Active means under 50% inhibition at 10 µM.
The target in experiment [2] is T2, 5-hydroxytryptamine receptor 1A (Rattus norvegicus, UniProt P19327). Further: in other assays of this panel Not Active means under 50% inhibition at 10 µM.
T2 sequence (P19327 whole entry): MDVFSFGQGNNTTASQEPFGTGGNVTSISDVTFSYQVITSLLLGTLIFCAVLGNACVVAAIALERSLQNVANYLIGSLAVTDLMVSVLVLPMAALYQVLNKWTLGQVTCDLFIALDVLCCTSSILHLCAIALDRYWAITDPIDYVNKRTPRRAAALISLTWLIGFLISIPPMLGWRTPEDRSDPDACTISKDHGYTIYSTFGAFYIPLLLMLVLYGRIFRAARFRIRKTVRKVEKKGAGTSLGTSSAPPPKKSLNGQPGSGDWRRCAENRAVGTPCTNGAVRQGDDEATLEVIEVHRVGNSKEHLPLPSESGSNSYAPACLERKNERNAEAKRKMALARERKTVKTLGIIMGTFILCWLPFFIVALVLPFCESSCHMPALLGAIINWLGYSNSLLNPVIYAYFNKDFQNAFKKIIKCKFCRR
Format: cell membranes, CHO-K1, Membrane. The note with it: for Ki: read-out: Ki.

In experiment [3] the target is T3, Amine oxidase [flavin-containing] A (Homo sapiens, UniProt P21397).
T3 sequence (P21397 whole entry): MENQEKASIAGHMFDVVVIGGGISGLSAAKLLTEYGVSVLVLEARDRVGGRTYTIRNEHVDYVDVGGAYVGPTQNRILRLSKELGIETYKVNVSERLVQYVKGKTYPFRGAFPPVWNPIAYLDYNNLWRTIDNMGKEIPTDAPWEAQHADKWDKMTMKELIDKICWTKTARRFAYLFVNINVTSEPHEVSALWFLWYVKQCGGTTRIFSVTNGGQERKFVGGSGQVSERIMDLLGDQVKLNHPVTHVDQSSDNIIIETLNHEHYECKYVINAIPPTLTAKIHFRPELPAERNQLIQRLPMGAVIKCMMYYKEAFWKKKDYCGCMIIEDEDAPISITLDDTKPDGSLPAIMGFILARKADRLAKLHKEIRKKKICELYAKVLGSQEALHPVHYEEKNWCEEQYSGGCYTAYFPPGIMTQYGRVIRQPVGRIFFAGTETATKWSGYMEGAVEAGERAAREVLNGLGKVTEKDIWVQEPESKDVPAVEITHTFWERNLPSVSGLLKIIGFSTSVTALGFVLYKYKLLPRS
The experiment can be described thus: DRUGMATRIX: Monoamine Oxidase MAO-A enzyme inhibition (substrate: Kynuramine). More on the design: species or system BTI-TN-5B1-4. The note with it: bti-tn-5b1-4; Not Active = under 50% inhibition at 10 µM.

The target of experiment [4] is C-C chemokine receptor type 2 (Homo sapiens, UniProt P41597). The experiment is classed as cell membranes, CHO-K1, Membrane. Further: in other assays of this panel Not Active means under 50% inhibition at 10 µM.
Sequence of C-C chemokine receptor type 2 (P41597 whole entry): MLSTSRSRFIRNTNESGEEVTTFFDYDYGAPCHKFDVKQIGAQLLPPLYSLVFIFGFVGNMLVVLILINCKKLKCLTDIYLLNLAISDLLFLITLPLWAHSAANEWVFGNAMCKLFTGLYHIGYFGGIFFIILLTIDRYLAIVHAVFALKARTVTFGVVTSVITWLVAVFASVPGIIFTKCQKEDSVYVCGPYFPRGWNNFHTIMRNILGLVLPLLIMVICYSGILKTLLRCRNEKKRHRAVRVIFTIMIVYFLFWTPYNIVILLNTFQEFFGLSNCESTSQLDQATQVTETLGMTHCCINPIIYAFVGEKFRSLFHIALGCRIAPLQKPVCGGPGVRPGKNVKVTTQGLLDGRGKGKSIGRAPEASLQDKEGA

Sequence of Substance-P receptor (P25103 whole entry): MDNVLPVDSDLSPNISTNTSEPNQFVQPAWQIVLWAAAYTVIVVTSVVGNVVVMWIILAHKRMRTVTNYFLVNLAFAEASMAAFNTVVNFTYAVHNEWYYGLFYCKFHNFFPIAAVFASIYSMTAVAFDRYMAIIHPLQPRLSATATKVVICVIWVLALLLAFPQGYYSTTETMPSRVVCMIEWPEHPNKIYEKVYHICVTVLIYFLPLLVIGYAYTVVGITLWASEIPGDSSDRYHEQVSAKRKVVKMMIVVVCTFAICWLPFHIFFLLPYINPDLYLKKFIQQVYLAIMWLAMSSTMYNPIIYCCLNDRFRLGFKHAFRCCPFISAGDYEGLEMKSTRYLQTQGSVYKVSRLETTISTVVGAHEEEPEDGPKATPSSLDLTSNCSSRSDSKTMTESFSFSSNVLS
Sequence of D(1A) dopamine receptor (P21728 whole entry): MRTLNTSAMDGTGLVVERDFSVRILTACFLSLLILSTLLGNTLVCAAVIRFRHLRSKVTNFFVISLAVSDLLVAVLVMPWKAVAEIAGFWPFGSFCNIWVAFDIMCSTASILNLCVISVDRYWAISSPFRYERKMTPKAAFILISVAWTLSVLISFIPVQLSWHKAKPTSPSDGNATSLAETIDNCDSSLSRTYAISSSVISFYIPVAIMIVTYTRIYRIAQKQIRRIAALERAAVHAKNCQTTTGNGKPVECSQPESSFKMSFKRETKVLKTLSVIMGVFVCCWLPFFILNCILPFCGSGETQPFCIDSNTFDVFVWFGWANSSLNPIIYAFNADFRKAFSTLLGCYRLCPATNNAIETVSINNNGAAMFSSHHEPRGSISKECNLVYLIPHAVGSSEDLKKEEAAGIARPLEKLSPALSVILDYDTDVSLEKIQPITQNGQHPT

In general, IC50 refers to the midpoint of a concentration-inhibition curve. As for `C=CCO` [ALLYL ALCOHOL], the IC50 entry (on D(1A) dopamine receptor (cho); in experiment [1]; against Substance-P receptor; in experiment [2] (cho-k1); in experiment [3]; in experiment [4] (cho-k1)) was “Not Active” each time.
Consider `Nc1nc(N)c2nc(CNc3ccc(C(=O)N[C@@H](CCC(=O)O)C(=O)O)cc3)cnc2n1` [AMINOPTERIN], for which the IC50 entry (at D(1A) dopamine receptor (cho); in experiment [1]; against Substance-P receptor; in experiment [2] (cho-k1); in experiment [3]; in experiment [4] (cho-k1)) was “Not Active” throughout.
As for `Nc1ccc(C(=O)O)c(O)c1` [AMINOSALICYLIC ACID], the IC50 entry (at D(1A) dopamine receptor (cho); in experiment [1]; on Substance-P receptor; in experiment [2] (cho-k1); in experiment [3]; in experiment [4] (cho-k1)) was “Not Active” each time.
With `C[C@@H]1[C@H](O)[C@@H](C)/C=C/C=C/C=C/C=C/C=C/C=C/C=C/[C@H](O[C@@H]2O[C@H](C)[C@@H](O)[C@H](N)[C@@H]2O)C[C@@H]2O[C@](O)(C[C@@H](O)C[C@@H](O)[C@H](O)CC[C@@H](O)C[C@@H](O)CC(=O)O[C@H]1C)C[C@H](O)[C@H]2C(=O)O` [AMPHOTERICIN B], the IC50 entry (at D(1A) dopamine receptor (cho); in experiment [1]; at Substance-P receptor; in experiment [2] (cho-k1); in experiment [3]; in experiment [4] (cho-k1)) was “Not Active” throughout.
Regarding `CC(C)(C#N)c1cc(Cn2cncn2)cc(C(C)(C)C#N)c1` [ANASTROZOLE], the IC50 result (on D(1A) dopamine receptor (cho); in experiment [1]; against Substance-P receptor; in experiment [2] (cho-k1); in experiment [3]; in experiment [4] (cho-k1)) was “Not Active” throughout.
For `C[C@]12CC[C@@H](O)C[C@@H]1CC[C@@H]1[C@@H]2CC[C@]2(C)C(=O)CC[C@@H]12` [ANDROSTERONE], the IC50 result (at D(1A) dopamine receptor (cho); in experiment [1]; against Substance-P receptor; in experiment [2] (cho-k1); in experiment [3]; in experiment [4] (cho-k1)) was “Not Active” each time.
On to `CC(C)NCC(O)COc1ccc(CC(N)=O)cc1` (centres undefined) [ATENOLOL], for which the IC50 entry (at D(1A) dopamine receptor (cho); in experiment [1]; at Substance-P receptor; in experiment [2] (cho-k1); in experiment [3]; in experiment [4] (cho-k1)) was “Not Active” each time.
For the compound `NCC(CC(=O)O)c1ccc(Cl)cc1` (centres undefined) [BACLOFEN], the 50% inhibitory concentration (IC50) result (on D(1A) dopamine receptor (cho); in experiment [1]; against Substance-P receptor; in experiment [2] (cho-k1); in experiment [3]; in experiment [4] (cho-k1)) was “Not Active” throughout.
As to `O=C(O)c1ccccc1` [BENZOIC ACID], the IC50 entry (on D(1A) dopamine receptor (cho); in experiment [1]; at Substance-P receptor; in experiment [2] (cho-k1); in experiment [3]; in experiment [4] (cho-k1)) was “Not Active” throughout.
One may read the Ki as a dissociation constant, usually derived from enzyme kinetics or from competition with a known ligand. In the case of `c1ccc2sc(SSc3nc4ccccc4s3)nc2c1` [BENZOTHIAZYL DISULFIDE], the IC50 was 1190 nM at D(1A) dopamine receptor (read-out: IC50); “Not Active” in experiment [1]; “Not Active” at Substance-P receptor; 747 nM in experiment [2] (read-out: IC50); “Not Active” in experiment [3]; 2410 nM in experiment [4] (read-out: IC50). For the same compound, the Ki was 595 nM on D(1A) dopamine receptor (read-out: Ki), 427 nM in experiment [2] and 929 nM in experiment [4] (read-out: Ki).
As for `OC[C@H]1O[C@@H]2O[C@H]3[C@H](O)[C@@H](O)[C@@H](O[C@H]4[C@H](O)[C@@H](O)[C@@H](O[C@H]5[C@H](O)[C@@H](O)[C@@H](O[C@H]6[C@H](O)[C@@H](O)[C@@H](O[C@H]7[C@H](O)[C@@H](O)[C@@H](O[C@H]8[C@H](O)[C@@H](O)[C@@H](O[C@H]1[C@H](O)[C@H]2O)O[C@@H]8CO)O[C@@H]7CO)O[C@@H]6CO)O[C@@H]5CO)O[C@@H]4CO)O[C@@H]3CO` [BETADEX], the IC50 result (on D(1A) dopamine receptor (cho); in experiment [1]; against Substance-P receptor; in experiment [2] (cho-k1); in experiment [3]; in experiment [4] (cho-k1)) was “Not Active” each time.
Consider `C[C@H]1C[C@H]2[C@@H]3CCC4=CC(=O)C=C[C@]4(C)[C@@]3(F)[C@@H](O)C[C@]2(C)[C@@]1(O)C(=O)CO` [BETAMETHASONE], for which the IC50 result (at D(1A) dopamine receptor (cho); in experiment [1]; against Substance-P receptor; in experiment [2] (cho-k1); in experiment [3]; in experiment [4] (cho-k1)) was “Not Active” throughout.
`CC(C)(c1ccc(O)cc1)c1ccc(O)cc1` [BISPHENOL A]: the IC50 result (at D(1A) dopamine receptor (cho); in experiment [1]; against Substance-P receptor; in experiment [2] (cho-k1); in experiment [3]; in experiment [4] (cho-k1)) was “Not Active” throughout.
As to `Cc1c(N)nc([C@H](CC(N)=O)NC[C@H](N)C(N)=O)nc1C(=O)N[C@H](C(=O)N[C@H](C)[C@@H](O)[C@H](C)C(=O)N[C@H](C(=O)NCCc1nc(-c2nc(C(=O)NCCC[S+](C)C)cs2)cs1)[C@@H](C)O)[C@@H](O[C@@H]1O[C@@H](CO)[C@@H](O)[C@H](O)[C@@H]1O[C@H]1O[C@H](CO)[C@@H](O)[C@H](OC(N)=O)[C@@H]1O)c1c[nH]cn1.[Br-]` [BLEOMYCIN A2], the IC50 entry (at D(1A) dopamine receptor (cho); in experiment [1]; on Substance-P receptor; in experiment [2] (cho-k1); in experiment [3]; in experiment [4] (cho-k1)) was “Not Active” in each case.
As to `CN(Cc1cc(Br)cc(Br)c1N)C1CCCCC1` [BROMHEXINE], the IC50 result (on D(1A) dopamine receptor (cho); in experiment [1]; at Substance-P receptor; in experiment [2] (cho-k1); in experiment [3]; in experiment [4] (cho-k1)) was “Not Active” throughout.
Turning to `CC(N)Cc1c[nH]c2ccc(OCc3cccs3)cc12` (centres undefined) [BW-723C86], the IC50 result on D(1A) dopamine receptor (cho) is “Not Active”; in experiment [1] it was “Not Active”; on Substance-P receptor it was “Not Active”; in experiment [2] (read-out: IC50), 1130 nM; in experiment [3] it was “Not Active”; in experiment [4] (cho-k1), “Not Active”. Besides, the Ki in experiment [2] was determined as 644 nM.
For the compound `CC12CCC(CC1=O)C2(C)C` (centres undefined) [CAMPHOR], the IC50 result (at D(1A) dopamine receptor (cho); in experiment [1]; at Substance-P receptor; in experiment [2] (cho-k1); in experiment [3]; in experiment [4] (cho-k1)) was “Not Active” each time.
As to `C[N+](C)(C)CCOC(N)=O.[Cl-]` [CARBACHOL], the IC50 result (at D(1A) dopamine receptor (cho); in experiment [1]; against Substance-P receptor; in experiment [2] (cho-k1); in experiment [3]; in experiment [4] (cho-k1)) was “Not Active” throughout.
As to `CCCCCCNC(=O)n1cc(F)c(=O)[nH]c1=O` [CARMOFUR], the IC50 result (on D(1A) dopamine receptor (cho); in experiment [1]; against Substance-P receptor; in experiment [2] (cho-k1); in experiment [3]; in experiment [4] (cho-k1)) was “Not Active” each time.
As to `Cl.NC[C@H]1CC[C@H](C(=O)Oc2ccc(CCC(=O)O)cc2)CC1` [CETRAXATE HYDROCHLORIDE], the IC50 entry (at D(1A) dopamine receptor (cho); in experiment [1]; against Substance-P receptor; in experiment [2] (cho-k1); in experiment [3]; in experiment [4] (cho-k1)) was “Not Active” each time.
